In US20230102554A1 (GB002, INC., priority 2019, published 2023):

Legend:
[1] = target: T1, Human PDGFRα, cytoplasmic domain (GST-PDGFRα) (Homo sapiens, UniProt P16234); experiment: Human PDGFRα biochemical inhibition assay (off-chip Mobility Shift Assay)
T1 construct: made in house

[2] = target: T2, Human PDGFRβ, cytoplasmic domain (GST-PDGFRβ) (Homo sapiens, UniProt P09619); experiment: Human PDGFRβ biochemical inhibition assay (off-chip Mobility Shift Assay)
T2 construct: made in house
Protocol: Human PDGFRβ Biochemical Inhibition Assay
The compounds described herein were tested for the ability to inhibit activity of PDGFRβ which was achieved via use of an off-chip Mobility Shift Assay (MSA). Human PDGFRβ, cytoplasmic domain [557-1106 (end) amino acids of accession number NP_002600.1 (SEQ ID NO: 3)] was expressed as N-terminal GST-fusion protein (88 kDa) using baculovirus expression system (SEQ ID NO: 4). GST-PDGFRβ was purified by using glutathione sepharose chromatography. Test compounds were dissolved in and diluted with dimethylsulfoxide (DMSO) to achieve 1 mM concentration. Then the solution was further diluted 25-fold with assay buffer to make the final test compound solution. The reference compound, Staurosporine, used as the assay positive control was prepared similarly. The 4× compound solution/substrate (CSKtide, 1000 nM)/ATP (Km ATP)/Mg Metal (5 mM) was prepared with kit buffer (20 mM HEPES, 0.01% Triton X-100, 5 mM DTT, pH 7.5), and 2× kinase solution was prepared with assay buffer (20 mM HEPES, 0.01% Triton X-100, 1 mM DTT, pH 7.5). The 5 μL of 4× compound solution, […] of 4× Substrate/ATP/Metal solution, and […] of 2× kinase solution were mixed and incubated in a well of polypropylene 384 well microplate for 1 hour at room temperature. […] of Termination Buffer (QuickScout Screening Assist MSA; Carna Biosciences) was added to the well. The reaction mixture was applied to LabChip™ system (Perkin Elmer), and the product and substrate peptide peaks were separated and quantitated. The kinase reaction was evaluated by the product ratio calculated from peak heights of product(P) and substrate(S) peptides (P/(P+S)). The readout value of reaction control (complete reaction mixture) was set as a 0% inhibition, and the readout value of background (Enzyme(−)) was set as a 100% inhibition, then the percent inhibition of each test solution was calculated.
With respect to PDGFRβ activity: “+++” denotes an IC50 of less than 300 nM; “++” denotes an IC50 of from 300 nM to less than 1000 nM; and “+” denotes an IC50 of 1000 nM or more.

T1 sequence (P16234 550-1089 T674I): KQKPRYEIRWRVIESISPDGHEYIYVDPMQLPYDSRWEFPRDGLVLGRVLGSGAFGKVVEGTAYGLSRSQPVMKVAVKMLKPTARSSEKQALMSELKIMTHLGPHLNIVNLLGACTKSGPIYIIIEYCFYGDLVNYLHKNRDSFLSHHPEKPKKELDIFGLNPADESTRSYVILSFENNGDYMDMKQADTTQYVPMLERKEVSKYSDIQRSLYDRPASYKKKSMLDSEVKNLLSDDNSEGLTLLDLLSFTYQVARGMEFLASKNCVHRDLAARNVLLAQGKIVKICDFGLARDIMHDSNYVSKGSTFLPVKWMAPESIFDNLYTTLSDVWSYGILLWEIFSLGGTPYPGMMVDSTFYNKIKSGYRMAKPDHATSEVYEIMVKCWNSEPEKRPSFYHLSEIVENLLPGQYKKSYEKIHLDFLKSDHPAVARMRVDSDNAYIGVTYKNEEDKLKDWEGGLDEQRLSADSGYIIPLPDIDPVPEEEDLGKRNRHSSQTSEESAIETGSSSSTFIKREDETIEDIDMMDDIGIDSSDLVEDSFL
T2 sequence (P09619 with tags, fused parts or gaps): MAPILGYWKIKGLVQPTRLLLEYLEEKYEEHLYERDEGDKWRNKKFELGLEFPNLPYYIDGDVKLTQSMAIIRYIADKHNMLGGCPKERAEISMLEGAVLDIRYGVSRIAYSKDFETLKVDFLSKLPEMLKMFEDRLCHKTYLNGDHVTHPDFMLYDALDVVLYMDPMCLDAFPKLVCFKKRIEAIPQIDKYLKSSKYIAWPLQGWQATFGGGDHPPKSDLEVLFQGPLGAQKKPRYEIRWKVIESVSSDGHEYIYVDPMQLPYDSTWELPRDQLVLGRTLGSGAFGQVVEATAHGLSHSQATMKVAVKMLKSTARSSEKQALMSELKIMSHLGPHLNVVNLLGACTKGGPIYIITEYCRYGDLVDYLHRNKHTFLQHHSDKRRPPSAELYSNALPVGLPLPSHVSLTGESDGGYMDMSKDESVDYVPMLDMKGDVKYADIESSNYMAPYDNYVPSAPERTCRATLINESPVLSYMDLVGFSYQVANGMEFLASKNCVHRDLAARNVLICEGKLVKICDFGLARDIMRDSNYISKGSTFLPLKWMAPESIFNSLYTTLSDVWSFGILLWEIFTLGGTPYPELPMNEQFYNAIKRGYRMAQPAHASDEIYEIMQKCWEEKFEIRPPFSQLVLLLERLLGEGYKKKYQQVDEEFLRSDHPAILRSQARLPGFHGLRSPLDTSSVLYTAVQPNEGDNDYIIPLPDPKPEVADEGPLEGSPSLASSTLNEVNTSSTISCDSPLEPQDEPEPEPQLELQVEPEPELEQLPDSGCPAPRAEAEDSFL

| SMILES | IC50 [1] [µM] | IC50 [2] [µM] |
| --- | --- | --- |
| C[C@H](Nc1cnc2cnn(C)c2n1)c1cc(NC(=O)c2ccc(OC(F)F)nc2)ccc1F [Compound 202, (S)-6-(difluoromethoxy)-N-(4-fluoro-3-(1-((1-methyl-1H-pyrazolo[3,4-b]pyrazin-6-yl)amino)ethyl)phenyl) nicotinamide] | < 0.3 | < 0.3 |
| Cc1cc(C(=O)Nc2cccc([C@H](C)Nc3cnc4cn[nH]c4n3)c2)cnc1C(F)(F)F [Compound 98, (S)-N-(3-(1-((1H-pyrazolo[3,4-b]pyrazin-6-yl)amino)ethyl)phenyl)-5-methyl-6-(trifluoromethyl)nicotinamide] | < 0.3 | < 0.3 |
| CCn1cc2ncc(N[C@@H](C)c3cccc(NC(=O)c4cnc(C5OCCO5)s4)c3)nc2n1 [Compound 400, (S)-2-(1,3-dioxolan-2-yl)-N-(3-(1-((2-ethyl-2H-pyrazolo[3,4-b]pyrazin-6-yl)amino)ethyl)phenyl)thiazole-5-carboxamide] | 0.3 to 1 | ≥ 1 |
| C[C@H](Nc1cnc2cn(C3CC3)nc2n1)c1cc(NC(=O)c2cnc(C(F)(F)F)s2)ccc1F [Compound 399, (S)-N-(3-(1-((2-cyclopropyl-2H-pyrazolo[3,4-b]pyrazin-6-yl)amino)ethyl)-4-fluorophenyl)-2-(trifluoromethyl)thiazole-5-carboxamide] | < 0.3 | < 0.3 |
| C[C@H](Nc1cnc2cnn(C)c2n1)c1cccc(NC(=O)c2cnn(C(F)F)c2)c1 [Compound 149, (S)-1-(difluoromethyl)-N-(3-(1-((1-methyl-1H-pyrazolo[3,4-b]pyrazin-6-yl)amino)ethyl)phenyl)-1H-pyrazole-4-carboxamide] | < 0.3 | < 0.3 |
| CCn1cc2ncc(N[C@@H](C)c3cccc(NC(=O)Cc4ccc5c(n4)CCCC5)c3)nc2n1 [Compound 723, (S)-N-(3-(1-((2-ethyl-2H-pyrazolo[3,4-b]pyrazin-6-yl)amino)ethyl)phenyl)-2-(5,6,7,8-tetrahydroquinolin-2-yl) acetamide] | < 0.3 | ≥ 1 |
| CCc1cncc(C(=O)Nc2cccc([C@H](C)Nc3cnc4cn[nH]c4n3)c2)c1 [Compound 91, (S)-N-(3-(1-((1H-pyrazolo[3,4-b]pyrazin-6-yl)amino)ethyl)phenyl)-5-ethylnicotinamide] | < 0.3 | < 0.3 |
| CCn1cc2ncc(N[C@@H](C)c3cccc(NC(=O)c4cnc(OC)c(Cl)c4)c3)nc2n1 [Compound 356, (S)-5-chloro-N-(3-(1-((2-ethyl-2H-pyrazolo[3,4-b]pyrazin-6-yl)amino)ethyl)phenyl)-6-methoxynicotinamide] | < 0.3 | < 0.3 |
| CCn1cc2ncc(N[C@@H](C)c3cc(NC(=O)Cc4ccc(C)cn4)ccc3F)nc2n1 [Compound 689, (S)-N-(3-(1-((2-ethyl-2H-pyrazolo[3,4-b]pyrazin-6-yl)amino)ethyl)-4-fluorophenyl)-2-(5-methylpyridin-2-yl) acetamide] | < 0.3 | ≥ 1 |
| CC(C)COc1ncc(C(=O)Nc2cccc([C@H](C)Nc3cnc4cnn(C)c4n3)c2)cc1Cl [Compound 262, (S)-5-chloro-6-isobutoxy-N-(3-(1-((1-methyl-1H-pyrazolo[3,4-b]pyrazin-6-yl)amino)ethyl)phenyl)nicotinamide] | < 0.3 | < 0.3 |
| CCn1cc2ncc(N[C@@H](C)c3cccc(NC(=O)c4ccc(C)c(Cl)c4)c3)nc2n1 [Compound 332, (S)-3-chloro-N-(3-(1-((2-ethyl-2H-pyrazolo[3,4-b]pyrazin-6-yl)amino)ethyl)phenyl)-4-methylbenzamide] | < 0.3 | < 0.3 |
| Cc1cncc(C(=O)Nc2cccc([C@H](C)Nc3cnc4ccoc4n3)c2)c1 [Compound 605, (S)-N-(3-(1-(furo[2,3-b]pyrazin-3-ylamino)ethyl)phenyl)-5-methylnicotinamide] | < 0.3 | < 0.3 |
